Source: publication PMC6270304, “Synthesis, Structure and Cytotoxic Activity of New Acetylenic Derivatives of Betulin” (Molecules, 2013)
Converted amounts (≈) assume the structure as drawn.

Key:
[1] = test system: Balb3T3 (normal mouse fibroblasts); assay: Antiproliferative assay in vitro (SRB); type: cell-based
Method: (§1) Cytotoxic activities of all newly synthesized compounds including betulin (1) were tested in SRB or MTT (in the case of leukemia cells) assay for their antiproliferative activity in vitro against three human cancer cell lines: SW707 (colorectal adenocarcinoma), CCRF/CEM (leukemia), T47D (breast cancer), and murine leukemia P388 as well as Balb3T3 normal fibroblasts cell lines. […] A value of less than 4 μg/mL was considered as an antiproliferative activity criterion for synthetic compounds [31].
(§2) The following established in vitro cell lines were applied: SW707 (human colorectal adenocarcinoma), CCRF/CEM (human leukemia), T47D (human breast cancer), P388 (mouse leukemia) and Balb3T3 (normal mouse fibroblasts). All lines were obtained from the American Type Culture Collection (Rockville, MD, USA) and maintained at the Cell Culture Collection of the Institute of Immunology and Experimental Therapy (Wroclaw, Poland).
(§3) Twenty-four hours before addition of the tested agents, the cells were plated in 96-well plates (Sarstedt, Numbrecht, Germany) at a density of 10^4 cells per well in 100 μL of culture medium. The cells were cultured in the opti-MEM medium supplemented with 2 mM glutamine (Gibco, Grand Island, NY, USA), streptomycin (50 μg/mL), penicillin (50 U/mL) (both antibiotics from Polfa, Tarchomin, Poland) and 5% fetal calf serum (Gibco). The cell cultures were maintained at 37 °C in humid atmosphere saturated with 5% CO2.
(§4) The compounds were dissolved in DMSO and culture medium (1:9) to the concentration of 1 mg/mL, and subsequently diluted in culture medium to reach the required concentrations (ranging from […]).
(§5) The in vitro cytotoxic effect of all agents was examined using the SRB assay for adherent cells and MTT assay for leukemia cells as described by Wietrzyk et al.. Each compound in given concentration was tested in triplicates in each experiment, which was repeated 3–5 times.

[2] = test system: SW707 (human colorectal adenocarcinoma); assay: Antiproliferative assay in vitro (SRB); type: cell-based
Method: as §1, §2, §3, §4, §5

[3] = test system: T47D (human breast cancer); assay: Antiproliferative assay in vitro (SRB); type: cell-based
Method: as §1, §2, §3, §4, §5

[4] = test system: CCRF/CEM (human leukemia); assay: Antiproliferative assay in vitro (MTT); type: cell-based; details: Homo sapiens, CCRF-CEM, read-out: Cytotoxic activity IC50, Human CCRF/CEM
Method: as §1, §2, §3, §4, §5

P388 (mouse leukemia) = assay: Antiproliferative assay in vitro (MTT); type: cell-based
Method: as §1, §2, §3, §4, §5

[5] = test system: investigated cancer cell lines (T47D, CCRF/CEM, SW707, P388, Balb3T3); assay: cells; type: cell-based, human and murine
Method: as §1, §2, §3, §4, §5

[6] = Antiproliferative assay in vitro (SRB); type: cell-based, mouse; details: mouse; Balb3T3 normal fibroblasts; SRB; Neg = negative in the concentration used; read-out: Cytotoxic activity IC50, Murine Balb3T3
Method: as §1, §2, §3, §4, §5

## C=C(C)C1CC[C@]2(COC(=O)C#Cc3ccccc3)CC[C@]3(C)C(CCC4[C@@]5(C)CC[C@H](O)C(C)(C)C5CC[C@]43C)C12 (stereo partly drawn) [Compound 5b, 28-O-Phenylpropynoylbetulin]
[1]
  Cytotoxic activity IC50, Murine Balb3T3: Neg
[2]
  Cytotoxic activity IC50, Human SW707: Neg
[3]
  Cytotoxic activity IC50, Human T47D: Neg
[4]
  IC50: 49 ± 9.8 µg/mL (≈ 85.8 µM)
P388 (mouse leukemia)
  Cytotoxic activity IC50, Murine P388: Neg
[5]
  cytotoxic activity in words: inactive
other
  melting point: 204 to 206 °C

## C=C(C)C1CC[C@]2(COC(=O)C#Cc3ccccc3)CC[C@]3(C)C(CCC4[C@@]5(C)CC[C@H](OC(=O)C#Cc6ccccc6)C(C)(C)C5CC[C@]43C)C12 (stereo partly drawn) [Compound 6b, 3,28-O,O'-Di(phenylpropynoyl)betulin]
[1]
  Cytotoxic activity IC50, Murine Balb3T3: Neg
[2]
  Cytotoxic activity IC50, Human SW707: Neg
[3]
  Cytotoxic activity IC50, Human T47D: Neg
[4]
  IC50: 66 ± 2.8 µg/mL (≈ 94.4 µM)
P388 (mouse leukemia)
  Cytotoxic activity IC50, Murine P388: Neg
[5]
  cytotoxic activity in words: inactive
other
  melting point: 91 to 92 °C

## C=C(C)[C@@H]1CC[C@]2(CO)CC[C@]3(C)[C@H](CC[C@@H]4[C@@]5(C)CC[C@H](O)C(C)(C)[C@@H]5CC[C@]43C)[C@@H]12 [Compound 1, lup-20(29)-ene-3β,28-diol, reference compound]
[6]
  IC50: 47.3 ± 7.9 µg/mL (≈ 107 µM)
[2]; Homo sapiens, SW707, read-out: Cytotoxic activity IC50, Human SW707
  IC50: 22.9 ± 15.4 µg/mL (≈ 51.7 µM)
[3]; Homo sapiens, T47D, read-out: Cytotoxic activity IC50, Human T47D
  IC50: 32.4 ± 10.7 µg/mL (≈ 73.2 µM)
[4]
  IC50: 10.9 ± 5.5 µg/mL (≈ 24.6 µM)
P388 (mouse leukemia); Mus musculus, P388, read-out: Cytotoxic activity IC50, Murine P388
  IC50: 5.5 ± 3.3 µg/mL (≈ 12.4 µM)
P388 (mouse leukemia); ratio IC50 of normal fibroblast (Balb3T3) / IC50 on P388
  selectivity index (SI): 8.6
[5]; Mus musculus, all cell lines except leukemia P388, read-out: IC50 values range over investigated cell lines
  IC50: 10.9 to 47.3 µg/mL (≈ 24.6 to 107 µM)
